Broadly, the IC50 is the concentration that gives 50% inhibition.

For series [1], the system named is human non-small cell lung cancer cells (A549). Description: Anti-proliferative activity, CCK-8 assay, A549. The note with it: 72 h incubation. The format is cell-based. The protocol: (§1) Experimental procedure: Sample solutions with a concentration of 20 μM were prepared and serially diluted 5-fold downwards to obtain 10 concentrations: 20000 nM, 4000 nM, 800 nM, 160 nM, 32 nM, 6.4 nM, 1.28 nM, 0.256 nM, 0.0512 nM and 0.01024 nM. The sample solutions were incubated with the above cell lines for 72 h. Then 10 μL of a CCK-8 solution was then added to each well, followed by a further 2 hours incubation. An optical density (OD) value was measured at 450 nm using a fully automated microplate reader. Data were processed using GraphPad Prism 7 to calculate IC50.
A general note: Tetrazolium dyes change colour on reduction, which living cells bring about.

Series [2] concerns human malignant melanoma cells (A375). Description: Anti-proliferative activity, CCK-8 assay, A375. The format is cell-based. The note with it: A-375, 72 h incubation. The protocol: as §1
In series [3] the test system is human prostate cancer cells (PC-3). Description: Anti-proliferative activity, CCK-8 assay, PC-3. The format is cell-based. Conditions: 72 h incubation. The protocol: as §1
The test system of series [4] is human colon cancer cells (HCT116). Description: Anti-proliferative activity, CCK-8 assay, HCT116. The format is cell-based. Conditions: HCT-116, 72 h incubation. The protocol:
as §1

The next series addresses MEK2 (Homo sapiens, UniProt P36507). Description: Raf-MEK-ERK cascade kinase assay using recombinant protein (MEK2). The format is biochemical. Conditions: 10 μM ATP, active B-Raf (V599E), 30° C. 30 minutes. The protocol:
(§2) Experimental purpose: The inhibitory activity of the compounds on MEK1 and MEK2 was measured by performing a Raf-MEK-ERK cascade kinase assay using recombinant protein.
(§3) Experimental method: 2 mg of dephosphorylated myelin basic protein (MBP) was dispersed in a 0.2 M sodium carbonate aqueous solution (pH=9.4). The mixed solution was then coated onto an enzyme-linked immunosorbent assay (ELISA) plate (U-shaped bottom plate) and left to stand overnight at 4° C. […] Compound solutions with serial concentrations were tested in triplicate wells. A mixture of 2 ng of inactivated MEK1 (or 4 ng of MEK2) and 50 ng of inactivated ERK2 was dissolved in a buffer solution (20 mM MOPS [pH=7.4], 0.1% 2-mercaptoethanol, 0.1% BSA) at room temperature, and then treated with the above serial solutions on a flat plate. The plate was covered with 1% bovine serum albumin (BSA) and pre-incubated for 10 minutes. […] After incubation at 30° C. for 30 minutes, phosphorylation of MBP by ERK was detected using peroxidase-labeled anti-phosphorylated MBP antibodies. Data curves were plotted and half maximal inhibitory concentration (IC50) values were calculated using XLFit.

In another series the target is MEK1 (Homo sapiens, UniProt Q02750). The series is described as follows: Raf-MEK-ERK cascade kinase assay using recombinant protein (MEK1). The format is biochemical. Conditions: 10 μM ATP, active B-Raf (V599E), 30° C. 30 minutes. The protocol:
as §2, §3

Series [5] deals with human colon cancer cells (HCT-15). The series is described as follows: Anti-proliferative activity, CCK-8 assay, HCT-15. The format is cell-based. Conditions: 72 h incubation. As for the experimental part:
as §1

Series [6] has as its system human HCT116 subcutaneous xenograft tumors. The series is described as follows: In vivo anti-tumor assay, subcutaneous xenograft model. The note with it: 3 mg/kg P.O. QD × 30 days; for Tumor growth inhibition, tumor volume change (FIG. 2): compared to the Trametinib group. Further details: species or system BALB/c nude mouse. The protocol: Experimental purpose: To evaluate the in vivo efficacy of the compounds in a subcutaneous xenograft model of human cancer cells in a Bagg's albino (BALB/c) nude mouse.
The tumor suppressive efficacy of the compounds was quantified by TGI (%) or relative tumor proliferation rate T/C (%). TGI (%) reflected the tumor growth inhibition rate. TGI(%) was calculated using the following equation: TGI(%)=[1−(mean tumor volume at the end of treatment in a treatment group-mean tumor volume at the start of treatment in the treatment group)/(mean tumor volume at the end of treatment in the solvent control group-mean tumor volume at the start of treatment in the solvent control group)]×100%.
T/C(%) was calculated using the following equation: T/C (%)=TRTV/CRTV×100%, where TRTV was an RTV of the treatment group, and CRTV was an RTV of the negative control group. The RTV was calculated from the results of tumor size measurements according to the following equation: RTV=Vt/V0, where V0 was a mean tumor volume measured on the day of first administration (i.e., day 0), Vt was a mean tumor volume measured on the day indicated, and TRTV and CRTV were obtained from data on the same day.

A short description of series [7]: Body weight change of experimental mice in the xenograft study. The note with it: 3 mg/kg gavage, 30 days.
Text: Experimental procedure: The study evaluated the inhibitory effect of compounds administered by gavage against human HCT116 subcutaneous xenograft tumors in the BALB/c nude mouse model by measuring tumor size and calculating tumor volume (TV), relative tumor volume (RTV), relative tumor proliferation rate (T/C), and anti-tumor efficacy (TGI).

Sequence of MEK1 (Q02750 whole entry): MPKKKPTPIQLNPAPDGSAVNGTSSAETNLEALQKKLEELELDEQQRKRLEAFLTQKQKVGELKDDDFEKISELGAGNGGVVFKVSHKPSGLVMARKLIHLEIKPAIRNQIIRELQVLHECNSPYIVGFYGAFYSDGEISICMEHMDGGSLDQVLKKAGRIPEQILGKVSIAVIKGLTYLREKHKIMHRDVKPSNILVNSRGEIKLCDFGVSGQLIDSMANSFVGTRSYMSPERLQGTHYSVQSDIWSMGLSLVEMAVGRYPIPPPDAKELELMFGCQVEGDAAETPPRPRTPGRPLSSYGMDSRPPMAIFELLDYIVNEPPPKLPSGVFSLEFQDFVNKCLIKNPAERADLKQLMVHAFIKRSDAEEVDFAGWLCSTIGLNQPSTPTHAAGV
Sequence of MEK2 (P36507 whole entry): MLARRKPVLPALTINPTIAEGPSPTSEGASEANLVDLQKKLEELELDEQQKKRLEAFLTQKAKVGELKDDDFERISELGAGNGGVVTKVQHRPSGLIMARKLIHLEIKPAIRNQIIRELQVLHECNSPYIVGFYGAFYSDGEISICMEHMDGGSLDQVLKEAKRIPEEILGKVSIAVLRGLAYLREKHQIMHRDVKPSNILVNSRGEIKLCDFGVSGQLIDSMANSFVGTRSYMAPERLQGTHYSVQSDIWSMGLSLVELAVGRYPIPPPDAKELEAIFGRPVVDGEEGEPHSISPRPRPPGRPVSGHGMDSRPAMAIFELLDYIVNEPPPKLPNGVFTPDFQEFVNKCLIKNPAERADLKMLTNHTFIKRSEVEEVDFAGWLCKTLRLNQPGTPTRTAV

`CC(=S)Nc1cccc(-n2c(=O)n(C)c(=O)c3c(Nc4ccc(I)cc4F)n(C)c(=O)c(C)c32)c1` [Compound 1]: the IC50 in series [1] was found to be 2.6 nM; in series [2], 3.5 nM; in series [3] it was 2.4 nM; in [4], 2.9 nM; on MEK2 it was 1.09 nM; on MEK1 it was 1.21 nM. For the same compound, the half-maximal inhibitory concentration (IC50) in series [5] amounted to 15.4 nM.

With `CC(=S)Nc1cccc(-n2c(=O)n(C3CC3)c(=O)c3c(Nc4ccc(I)cc4F)n(C)c(=O)c(C)c32)c1` [Compound 2], the IC50 was 3.1 nM in series [1]; 3.1 nM in series [2]; 3.6 nM in series [3]; 2.6 nM in [4]; 2.13 nM at MEK2; 1.83 nM on MEK1. In series [5], the concentration for half-maximal inhibition (IC50) is 12.6 nM. Also, the “T/C (relative tumor proliferation rate)” value in [6] was 9.62%. Besides, the “TGI (tumor growth inhibition rate)” value in [6] turned out to be 98.72%. In addition, the “Tumor volume (Day 30)” value in series [6] is 165 ± 21 mm^3. In series [6], the “Tumor growth inhibition, tumor volume change (FIG. 2)” value is given as “better inhibitory effects”. The “Weight loss at the end of the experiment / toxicity (FIG. 1)” value in series [7] is “toxicity of Trametinib was higher than that of compounds 2, 8 and 12”.

Turning to `CC(=S)Nc1cccc(-n2c(=O)n(C(C)C)c(=O)c3c(Nc4ccc(I)cc4F)n(C)c(=O)c(C)c32)c1` [Compound 3], the 50% inhibitory concentration (IC50) in [1] turned out to be 1.5 nM; in series [2], 2.5 nM; in series [3], 1.9 nM; in [4] it was 2.1 nM; on MEK2, 0.98 nM; on MEK1 it was 0.9 nM. In addition, the IC50 in series [5] is 14.8 nM.

Turning to `CC(=S)Nc1cccc(-n2c(=O)n(C3CCCC3)c(=O)c3c(Nc4ccc(I)cc4F)n(C)c(=O)c(C)c32)c1` [Compound 4], the IC50 was found to be 2.4 nM in series [1]; 3.9 nM in series [2]; 1.4 nM in [3]; 1.6 nM in series [4]; 1.05 nM at MEK2; 1.36 nM on MEK1. Moreover, inhibition in [5] was half-maximal at 9.8 nM (IC50).

Regarding `CCC(=S)Nc1cccc(-n2c(=O)n(C3CC3)c(=O)c3c(Nc4ccc(I)cc4F)n(C)c(=O)c(C)c32)c1` [Compound 5], the 50% inhibitory concentration (IC50) in series [1] turned out to be 3.6 nM; in series [2], 2.6 nM; in series [3], 3.3 nM; in series [4], 3.8 nM; at MEK2, 1.19 nM; in series [5] it was 20.1 nM.

Consider `Cc1c(=O)n(C)c(Nc2ccc(I)cc2F)c2c(=O)n(C3CC3)c(=O)n(-c3cccc(NC(=S)C4CC4)c3)c12` [Compound 6], for which the half-inhibitory concentration (IC50) came out at 3.9 nM in [1]; 2.9 nM in [2]; 2.8 nM in [3]; 1.6 nM in series [4]; 1.24 nM at MEK2; 1.88 nM at MEK1. Moreover, the midpoint of inhibition in series [5], the IC50, lay at 13.9 nM.

Take `Cc1c(=O)n(C)c(Nc2ccc(I)cc2F)c2c(=O)n(C3CC3)c(=O)n(-c3cccc(NC(=S)C(C)C)c3)c12` [Compound 7]: the IC50 in series [1] turned out to be 2.8 nM; in series [2], 4.3 nM; in series [3] it was 2.1 nM; in [4], 2.7 nM; at MEK2, 1.01 nM; at MEK1 it was 0.95 nM. The compound also gave an IC50 in series [5] of 24.2 nM.

As to `Cc1c(=O)n(C)c(Nc2ccc(I)cc2F)c2c(=O)n(C3CC3)c(=O)n(-c3cccc(NC(=S)CO)c3)c12` [Compound 8], the concentration for half-maximal inhibition (IC50) is 5.8 nM in series [1]; 4.7 nM in series [2]; 2.4 nM in series [3]; 4.2 nM in [4]; 2.08 nM at MEK2; 1.57 nM at MEK1. This compound also had a 50% inhibitory concentration (IC50) in series [5] of 25.8 nM. For the same compound, in [6], the “T/C (relative tumor proliferation rate)” value stood at 8.17%. Besides, in [6], the “TGI (tumor growth inhibition rate)” value turned out to be 100.32%. Besides, the “Tumor volume (Day 30)” value in [6] was determined as 140 ± 26 mm^3. The “Tumor growth inhibition, tumor volume change (FIG. 2)” value in series [6] was “better inhibitory effects”. The “Weight loss at the end of the experiment / toxicity (FIG. 1)” value in [7] was “toxicity of Trametinib was higher than that of compounds 2, 8 and 12”.

As to `CC(=S)Nc1ccc(F)c(-n2c(=O)n(C3CC3)c(=O)c3c(Nc4ccc(I)cc4F)n(C)c(=O)c(C)c32)c1` [Compound 9], the IC50 in series [1] turned out to be 4.4 nM; in series [2], 2.8 nM; in [3] it was 1.9 nM; in series [4], 5.2 nM; at MEK2 it was 2.26 nM; on MEK1, 2.29 nM. The IC50 in series [5] stood at 21.6 nM.

`CC(=S)Nc1cc(F)cc(-n2c(=O)n(C3CC3)c(=O)c3c(Nc4ccc(I)cc4F)n(C)c(=O)c(C)c32)c1` [Compound 10]: the IC50 in series [1] was found to be 8.5 nM; in series [2] it was 1.8 nM; in series [3], 2.3 nM; in series [4], 6.4 nM; on MEK2 it was 2.07 nM; on MEK1 it was 2.01 nM. The same compound came in with an IC50 in series [5] of 14.9 nM.

Turning to `CC(=S)Nc1cc(-n2c(=O)n(C3CC3)c(=O)c3c(Nc4ccc(I)cc4F)n(C)c(=O)c(C)c32)ccc1F` [Compound 11], the IC50 in series [1] turned out to be 3.4 nM; in [2], 2.4 nM; in [3], 2.7 nM; in [4], 3.1 nM; at MEK2, 1.54 nM; at MEK1 it was 1.37 nM. It took 21.8 nM to reach half-maximal inhibition in series [5] (IC50).

For `Cc1c(=O)n(C)c(Nc2ccc(I)cc2F)c2c(=O)n(C3CC3)c(=O)n(-c3cccc(NC(=S)CN)c3)c12` [Compound 12], the IC50 worked out at 3.1 nM in series [1]; 3.1 nM in [2]; 2.3 nM in [3]; 3.6 nM in series [4]; 2.13 nM at MEK2; 1.51 nM on MEK1. In series [5], this compound had an IC50 of 22.7 nM. Moreover, the “T/C (relative tumor proliferation rate)” value in [6] came out at 7.47%. Further, in series [6], the “TGI (tumor growth inhibition rate)” value is 101.08%. Moreover, in series [6], the “Tumor volume (Day 30)” value was determined as 128 ± 19 mm^3. In addition, in series [6], the “Tumor growth inhibition, tumor volume change (FIG. 2)” value was “better inhibitory effects”. In addition, the “Weight loss at the end of the experiment / toxicity (FIG. 1)” value in series [7] is “toxicity of Trametinib was higher than that of compounds 2, 8 and 12”.

For the compound `Cc1c(=O)n(C)c(Nc2ccc(I)cc2F)c2c(=O)n(C3CC3)c(=O)n(-c3cccc(NC(=S)C(=O)O)c3)c12` [Compound 13], the IC50 in series [1] was 6.4 nM; in series [2], 4.2 nM; in series [3] it was 4.5 nM; in series [4], 5.2 nM; on MEK2, 2.64 nM; on MEK1 it was 2.38 nM. Further, 31.7 nM corresponded to half-maximal inhibition in series [5] (IC50).

As to `CC(=O)Nc1cccc(-n2c(=O)n(C3CC3)c(=O)c3c(Nc4ccc(I)cc4F)n(C)c(=O)c(C)c32)c1` [Trametinib, reference compound], the IC50 in series [1] was 33.2 nM; in series [2], 12.5 nM; in [3], 12.6 nM; in [4] it was 32.7 nM; in series [5] it was 98.3 nM. The “TGI (tumor growth inhibition rate)” value in series [6] is 89.80%. Also, the “Tumor volume (Day 30)” value in series [6] is 305 ± 34 mm^3.

Values taken from patent US12168659B2, “Thioamide derivative and preparation method and application thereof” (Yunbaiyao Zhengwu Science and Technology (Shanghai) Co., …, priority 2022, dated 2024).
